This note sets out measurements from patent US4999372A, “New aminochromanol compounds” (ADIR et Compagnie, priority 1988, dated 1991).

One experiment relates to guinea pig. Briefly: Bronchospasm produced by a histamine aerosol at 4%, compound i.v. It is filed as in vivo. To be noted: 0.35 mg/kg i.v. How it is done:
The bronchodilating activity has been studied in the guinea pig by the method of H. KONZETT and R. ROSSLER, Arch. Exp. Path. U. Pharm. 195, 71 (1940).
For example, the bronchospasm produced in the guinea pig by a histamine aerosol et 4% is inhibited of 96% by the compound of Example 1 B form, at the dose of 0.30 mg/kg i.v., and of 100% by the compound of Example 24 B form, at the dose of 0.35 mg/kg i.v.

Experiment [1] deals with aorta of the rat. Briefly: Relaxation of rat aortic rings contracted by potassium depolarisation (KCl). It is filed as cell-based. To be noted: Rattus norvegicus, rat aorta rings without endothelium. How it is done: (§1) Male Wistar rats (325-375 g) are anaesthetised i.p. using sodium pentobarbital (30 mg/kg). The thoracic aorta and the mesenteric portal vein are removed. The aorta is dissected into rings 3 mm long and the endothelium is removed mechanically.
(§2) The organs are placed in a 20 ml thermostatically controlled vessel containing a physiological solution composed of (mM): NaCl 112; KCl 5; KH2 PO4 1; MgSO4 1.2; CaCl2 2.5; NaHCO3 25; glucose 11.5; EDTA 0.1; pH: 7.4; 37° C.; 95% O2 +5% CO2.
(§3) The initial force applied is 2 g in the case of the aorta and 0.5 g in the case of the portal vein. The variations in force are measured by a STATHAM sensor connected to a transducer amplifier (GOULD) and are monitored continuously on a GOULD 2400 graphic recorder.
(§4) The experimental protocols are as follows: After a stabilisation period of 90 minutes, the aortic rings are subjected to various tests:
potassium depolarisation:
The preparations are exposed to a 30 mM or 80 mM KCl (and 87 and 37 mM NaCl, respectively) hyperpotassium medium; after 30 minutes' stabilisation of contraction, cumulative concentrations of the product to be tested are added every 15 minutes. The relaxation values obtained allow the IC50 s to be calculated.
(§5) The products are used in a form dissolved in water or a suitable solvent.
(§6) The concentrations expressed refer to the final concentrations in terms of base in the isolated organ baths.

The test system of experiment [2] is aorta of the rat. Briefly: Reactivity of rat aortic rings to 4-aminopyridine (4 AP). It is filed as cell-based. Particulars: 4 AP 5 mM. How it is done: as §1, §2, §3, §4
reactivity to 4-aminopyridine (4 AP)
The product to be tested, at a given concentration, or its solvent, is incubated in the normal physiological solution 15 minutes before the addition of the 4 AP (5 mM).
The maximum amplitudes of the responses to the 4 AP in the presence of the product or the solvent are compared.
as §5, §6

In experiment [3] the test system is spontaneously hypertensive rat (SHR). Briefly: Arterial pressure in the conscious spontaneously hypertensive rat (SHR), oral. It is filed as in vivo. How it is done:
The study is carried out on SHR male rats (Charles River) weighing from 260 g to 330 g and aged from 18 to 20 weeks. A polyethylene catheter is positioned at the level of the abdominal aorta and tunnelised at the level of the neck under anaesthesia (ketamine hydrochloride 150 mg/kg intraperitoneally). The animals, placed in movement-restraining cages, are tested in the conscious state at least 48 hours after intervention. The arterial pressure, measured by a STATHAM P23 pressure sensor connected to the abdominal catheter, is registered on a GOULD 2400 recorder. […] The doses administered are expressed in mg/kg of base.
The results obtained with a certain number of representative products of the invention and a reference product, CROMAKALIM, are grouped in the following Table. The variations in systolic and diastolic arterial pressure (PAS and PAD) presented at the most significant times after treatment are expressed as percentage variation with respect to the control values.

Experiment [4] relates to conscious renally hypertensive dog. Briefly: Arterial pressure in the conscious renally hypertensive dog. It is filed as in vivo. To be noted: gastric intubation, 0.1 mg/kg. How it is done: Mongrel dogs weighing from 20 to 25 kg are used. A silastic catheter positioned under anaesthesia (sodium pentobarbital 30 mg/kg i.v.) at the level of the abdominal aorta and left over a prolonged period permits the later measurement of the arterial pressure in the conscious animals. Arterial hypertension is induced by a second intervention under anaesthesia consisting in a constriction of the left renal artery using a clip, which reduces its rate of flow by approximately 70%, the left kidney is enveloped in a latex capsule and the contralateral kidney is left in place.
The systolic and diastolic arterial pressures (PAS and PAD) are measured using a STATHAM P23 pressure sensor connected to the silastic catheter and linked to a GOULD pressure amplifier. The products are tested on the animals, which have become hypertensive, in the conscious state, at least one week after the second intervention. The arterial pressure is monitored continuously on an ES1000 GOULD recorder until 7 hours have elapsed after the treatment and then until 24 hours have elapsed.
The products to be tested are administered via the digestive system, after gastric intubation, in a form dissolved in water or a suitable solvent. The doses administered are expressed in mg of base with respect to body weight.
The representative products of the invention were compared with the reference product (CROMAKALIM). The variations in the systolic and diastolic arterial pressures (PAS and PAD), presented at the most significant times after treatment, are expressed as percentage variation with respect to the control values.

For another experiment, the system named is anaesthetised dog. Briefly: Haemodynamic study in the anaesthetised dog (vascular resistances), i.v. It is filed as in vivo. To be noted: 10 μg/kg. How it is done: A complete haemodynamic study was carried out on mongrel dogs weighing from 25 to 30 kg, which were anaesthetised with sodium pentobarbital 30 mg/kg i.v., intubated and ventilated and subjected to a thoracotomy at the 5th left intercostal space. The measurement of the […] is carried out using electromagnetic rings positioned at the level of the ascending aorta and the circumflex branch of the left coronary artery, respectively, and connected to GOULD SP 2202 electromagnetic flow meters. The aortic pressure is measured by a MILLAR probe introduced via the femoral artery.
The total peripheral vascular resistance values (TPR) and the mean coronary vascular resistance values (CVRM) are calculated by the ratio between the mean aortic pressure and the mean cardiac output and the mean coronary output, respectively. The products tested were injected via the femoral vein in a form dissolved in water or a suitable solvent.
The evolution of the vascular resistances, expressed as percentage variation with respect to the control values, is presented as a function of time in the following Table.

Where two headings read alike, the source gives them in different places.

Take `COC(=O)c1ccc2c(c1)C(N1C(=O)CCC1CO)C(O)C(C)(C)O2` (single isomer, unassigned) [Example 24 B form]: the “Inhibition of the bronchospasm produced by a histamine aerosol at 4%” value in the experiment with guinea pig worked out at 100%.

In the case of `CC1(C)Oc2ccc(C#N)cc2[C@@H](N2CCCC2=O)[C@@H]1O` (relative stereo) [CROMAKALIM, reference compound], the half-inhibitory concentration (IC50) is 4.2e-07 M in the experiment on aorta of the rat [1] (30 mM KCl, read-out: IC50 (M) KCl 30 mM) and greater than 0.0001 M in the experiment on aorta of the rat [1] (80 mM KCl, read-out: IC50 (M) KCl 80 mM). Besides, the “% inhibition of the response to 4AP” value came to 74% in the experiment on aorta of the rat [2] (product 10^-5 M) and 13% with aorta of the rat [2] (product 10^-7 M). Also, the “Variation (%) of PAD after treatment” value in experiment [3] (0.3 mg/kg, 1 H) is listed as -26 ± 3%; in experiment [3] (0.3 mg/kg, 3 H), -7 ± 5%; in experiment [3] (0.3 mg/kg, 6 H) it was -3 ± 1%; in experiment [3] (0.3 mg/kg, 30 min), -34 ± 2%; in experiment [3] (1.0 mg/kg, 1 H), -33 ± 3%; in experiment [3] (1.0 mg/kg, 3 H) it was -25 ± 4%. The “Variation (%) of PAD after treatment” value in experiment [3] (1.0 mg/kg, 6 H) was -20 ± 2%; in experiment [3] (1.0 mg/kg, 30 min), -44 ± 4%; in experiment [4] (1 H), -23%; in experiment [4] (3 H), -9%; in experiment [4] (7 H), -5%; in experiment [4] (24 H), “+18%”. In experiment [4] (30 min), the “Variation (%) of PAD after treatment” value was -46%. The “Variation (%) of PAS after treatment” value is given as -21 ± 3% in experiment [3] (0.3 mg/kg, 1 H); -5 ± 4% in experiment [3] (0.3 mg/kg, 3 H); -1 ± 2% in experiment [3] (0.3 mg/kg, 6 H); -29 ± 2% in experiment [3] (0.3 mg/kg, 30 min); -23 ± 4% in experiment [3] (1.0 mg/kg, 1 H); -19 ± 3% in experiment [3] (1.0 mg/kg, 3 H). Moreover, the “Variation (%) of PAS after treatment” value in experiment [3] (1.0 mg/kg, 6 H) is given as -15 ± 2%; in experiment [3] (1.0 mg/kg, 30 min), -34 ± 5%; in experiment [4] (1 H) it was -26%; in experiment [4] (3 H), -9%; in experiment [4] (7 H) it was “+2%”; in experiment [4] (24 H), “+9%”. The “Variation (%) of PAS after treatment” value in experiment [4] (30 min) is given as -50%. Also, the “Variation (%) of CVRM after treatment” value in the experiment with anaesthetised dog (1 min) is listed as -69.0%; with anaesthetised dog (10 min), -38.1%; in the experiment with anaesthetised dog (30 min) it was -27.4%. The “Variation (%) of TPR after treatment” value in the experiment on anaesthetised dog (1 min) is -26.8%; with anaesthetised dog (10 min), -15.5%; with anaesthetised dog (30 min), -7.8%.

As usually defined, the IC50 is the concentration needed to halve the response being measured.
